According to US20260248734A1, “COMPOSITIONS AND METHODS FOR TREATING METABOLIC DISEASES/DISORDERS” (priority 2023, published 2026):

B1: CO3A1: Collagen 3A1 recombinant protein (R&D Systems) coated on culture plates (protein, UniProt P02461 154-1221, looked up)
Collagen alpha-1(III) chain: QYDSYDVKSGVAVGGLAGYPGPAGPPGPPGPPGTSGHPGSPGSPGYQGPPGEPGQAGPSGPPGPPGAIGPSGPAGKDGESGRPGRPGERGLPGPPGIKGPAGIPGFPGMKGHRGFDGRNGEKGETGAPGLKGENGLPGENGAPGPMGPRGAPGERGRPGLPGAAGARGNDGARGSDGQPGPPGPPGTAGFPGSPGAKGEVGPAGSPGSNGAPGQRGEPGPQGHAGAQGPPGPPGINGSPGGKGEMGPAGIPGAPGLMGARGPPGPAGANGAPGLRGGAGEPGKNGAKGEPGPRGERGEAGIPGVPGAKGEDGKDGSPGEPGANGLPGAAGERGAPGFRGPAGPNGIPGEKGPAGERGAPGPAGPRGAAGEPGRDGVPGGPGMRGMPGSPGGPGSDGKPGPPGSQGESGRPGPPGPSGPRGQPGVMGFPGPKGNDGAPGKNGERGGPGGPGPQGPPGKNGETGPQGPPGPTGPGGDKGDTGPPGPQGLQGLPGTGGPPGENGKPGEPGPKGDAGAPGAPGGKGDAGAPGERGPPGLAGAPGLRGGAGPPGPEGGKGAAGPPGPPGAAGTPGLQGMPGERGGLGSPGPKGDKGEPGGPGADGVPGKDGPRGPTGPIGPPGPAGQPGDKGEGGAPGLPGIAGPRGSPGERGETGPPGPAGFPGAPGQNGEPGGKGERGAPGEKGEGGPPGVAGPPGGSGPAGPPGPQGVKGERGSPGGPGAAGFPGARGLPGPPGSNGNPGPPGPSGSPGKDGPPGPAGNTGAPGSPGVSGPKGDAGQPGEKGSPGAQGPPGAPGPLGIAGITGARGLAGPPGMPGPRGSPGPQGVKGESGKPGANGLSGERGPPGPQGLPGLAGTAGEPGRDGNPGSDGLPGRDGSPGGKGDRGENGSPGAPGAPGHPGPPGPVGPAGKSGDRGESGPAGPAGAPGPAGSRGAPGPQGPRGDKGETGERGAAGIKGHRGFPGNPGAPGSPGPAGQQGAIGSPGPAGPRGPVGPSGPPGKDGTSGHPGPIGPPGPRGNRGERGSEGSPGHPGQPGPPGPPGAPGPCCGGVGAAAIAGIGGEKAGGFAPYYG

Experiments:
[1] = test system: differentiated human adipocytes; assay: Thermogenic gene expression in human adipocytes in vitro by real-time PCR; type: cell-based
Description: RNA from iWAT tissue and cells was isolated and purified using a Qiagen Rneasy Mini Kit (Valencia, CA) according to manufacturer guidelines. mRNA concentrations were measured using a Take3 Micro-Volume Plate (BioTek, Winooski, VT), then normalized to 150 ng of mRNA for conversion to cDNA. cDNA was synthetized using random hexamer primers and an iScript cDNA-synthesis kit (Biorad). The quantitative RT-PCR reactions were performed using the So Advanced™ Universal SYBER Green Supermix kit (Biorad) in a CFX96 Touch Real-Time PCR Detection System (BioRad, Hercules, CA). Fold expression levels were calculated using the […]. Transcript levels were normalized to 18S ribosomal RNA levels in all experiments. Primer (Table 1) specificity was tested by assessing the melting curve.

[2] = test system: adipose derived stem cells (ASCs) isolated from WT SubQ WAT; assay: Beige differentiation of ASCs on ECM protein coated surfaces, beige marker expression by RT-PCR; type: cell-based, mice; conditions: for reduction in UCP1 relative to uncoated surfaces: ASCs beige-differentiated on coated surface; for COX7A1 expression: differentiated cells on coated surface
Description: Immunohistochemistry. SubQ fat was harvested from animals using sterile techniques, cut into small pieces and fixed in 4% paraformaldehyde for 24 hours at 4 degrees. Tissue pieces were then washed with phosphate buffered saline (PBS), permeabilized with 0.5% triton in PBS and blocked with 10% donkey serum; followed by incubation with either 1) ITA7 antibody (1:100, Novus Biologics NBP1-86,118) and Griffonia simplicifolia isolectin conjugated with Rhodamine to labels endothelial cells, or 2) ITA7 antibody and CD68 antibody (1:100, Santa Cruz sc-70761) to label macrophages for 48 hours at 4 degrees. After washes (3×15 minutes), the tissues were incubated with second antibodies (Alexa Fluor 647 Donkey Anti-Rabbit IgG and/or TRITC Goat Anti-Mouse, IgG), BODIPY to stain lipid droplets and DAPI to stain the nuclei, for 2 hours at room temperature. Confocal imaging. A confocal laser-scanning microscope was used to image samples (Leica TCS SP8 Confocal Microscope; Buffalo Grove, IL). Adipocytes labeled by BODIPY and ITA7 labeled by Alexa Fluor 647 were imaged simultaneously in two channels, with Rhodamine-labeled endothelial tissue or TRITC CD68-labeled macrophages, and DAPI nuclei imaged in series. Confocal image stacks were obtained with a 63×oil immersion lens (NA 1.4). Laser intensity, confocal aperture, and photomultiplier gain were kept constant across samples. Image processing and analysis: Confocal image stacks were processed and analyzed using Leica LASX software version 3.5.2 (Wetzlar, Germany). The Alexa 647 and Rhodamine channels were thresholded and the intersection between both layers was quantified in order to characterize the colocalization between ITA7 and endothelial cells. In separate tissue, the colocalization between ITA7 and CD68 positive cells was also quantified. Using 3D images, the Alexa 647, Rhodamine or TRITC and intersection area per cell were calculated. cytoNet image analysis: cytoNet is a software accessible over the web that quantifies the spatial relationships in cell communities using principles of graph theory and evaluates the effect of cell-cell interactions on individual cell phenotypes (https://www.braininitiative.org/toolmakers/resources/cytonet/). Image files were segmented manually and provided as input to cytoNet. Because blood vessels have noncircular shapes, the minimum distance between object perimeters was computed in order to define graph edges. The resulting cell-to-cell perimeter distance and cells characteristics were analyzed in WT and KO SubQ WAT images. RNA isolation and quantitative RT-PCR. RNA from tissue and cells was isolated and purified using a Qiagen RNeasy Mini Kit (Valencia, CA) according to manufacturer guidelines. mRNA concentrations were measured using a Take3 Micro-Volume Plate (BioTek. Winooski, VT), then normalized to 150 ng of mRNA for conversion to cDNA. cDNA was synthetized using random hexamer primers and an iScript cDNA-synthesis kit (Biorad). The quantitative RT-PCR reactions were performed using the So Advanced™ Universal SYBER Green Supermix kit (Biorad) in a CFX96 Touch Real-Time PCR Detection System (BioRad, Hercules. CA). Fold expression levels were calculated using the 2^ΔΔCt method. Transcript levels were normalized to 18S ribosomal RNA levels in all experiments that used mice cells (FIGS. 3, 4, 7), or the GAPDH reference gene in experiments with human cells (FIG. 6). Primer (Table 1) specificity was tested by the assessing the melting curve. Western blot analysis. Cells were lysed using CelLytic (Sigma, St. Louis, MO) and tissue was lysed using RIPA buffer (EMD Millipore, Billerica, MA) and protease inhibitor cocktail (Fischer Scientific, Waltham, MA). Protein concentration was determined using the Bio-Rad DC protein assay (Bio-Rad Laboratories, Hercules. CA). […]

ASCs = assay: Hydrogen peroxide (ROS-Glo H2O2) assay of ASCs differentiated on coated surfaces; type: cell-based, mice; conditions: compared to uncoated surface

Molecule | peak of efficacy on browning after administration [1] | increase in Cox7A1 gene expression ([1]; 6 h of treatment) [fold] | increase in UCP1 gene expression ([1]; 6 h of treatment) | reduction in UCP1 relative to uncoated surfaces [2] [%] | COX7A1 expression [2] | ROS levels (ASCs) | PGC1A levels ([2]; compared to uncoated surfaces)
C=C[C@@]1(C)CC(=O)[C@]2(O)[C@@]3(C)[C@@H](O)CCC(C)(C)[C@@H]3[C@H](O)[C@H](OC(C)=O)[C@@]2(C)O1 [FSK, (13R)-1α,6β,9α-Trihydroxy-11-oxo-8α,13-epoxylabd-14-en-7β-yl acetate] | ~ 6 h | 1.5 | ~ 5 fold | – | – | – | –
LAMA4: Laminin α4 recombinant protein (R&D Systems) coated on culture plates | – | – | – | 51.4 | significant decrease | higher ROS levels | –
CO1A1: Collagen 1A1 recombinant protein (R&D Systems) coated on culture plates | – | – | – | 71.7 | significant decrease | – | significant decrease
B1 | – | – | – | 91.16 | significant decrease | – | –
